Source: US7189758B2, “Glucocorticoid mimetics, methods of making them, pharmaceutical formulations, and uses thereof” (Boehringer Ingelheim Pharmaceuticals, Inc., priority 2002, dated 2007)

Target: T1, human glucocorticoid receptor (GR) complex (Homo sapiens, UniProt P04150)
T1 construct: made in house; host or cells: insect cells (baculovirus expression), used as crude lysate
T1 sequence (P04150 1-777): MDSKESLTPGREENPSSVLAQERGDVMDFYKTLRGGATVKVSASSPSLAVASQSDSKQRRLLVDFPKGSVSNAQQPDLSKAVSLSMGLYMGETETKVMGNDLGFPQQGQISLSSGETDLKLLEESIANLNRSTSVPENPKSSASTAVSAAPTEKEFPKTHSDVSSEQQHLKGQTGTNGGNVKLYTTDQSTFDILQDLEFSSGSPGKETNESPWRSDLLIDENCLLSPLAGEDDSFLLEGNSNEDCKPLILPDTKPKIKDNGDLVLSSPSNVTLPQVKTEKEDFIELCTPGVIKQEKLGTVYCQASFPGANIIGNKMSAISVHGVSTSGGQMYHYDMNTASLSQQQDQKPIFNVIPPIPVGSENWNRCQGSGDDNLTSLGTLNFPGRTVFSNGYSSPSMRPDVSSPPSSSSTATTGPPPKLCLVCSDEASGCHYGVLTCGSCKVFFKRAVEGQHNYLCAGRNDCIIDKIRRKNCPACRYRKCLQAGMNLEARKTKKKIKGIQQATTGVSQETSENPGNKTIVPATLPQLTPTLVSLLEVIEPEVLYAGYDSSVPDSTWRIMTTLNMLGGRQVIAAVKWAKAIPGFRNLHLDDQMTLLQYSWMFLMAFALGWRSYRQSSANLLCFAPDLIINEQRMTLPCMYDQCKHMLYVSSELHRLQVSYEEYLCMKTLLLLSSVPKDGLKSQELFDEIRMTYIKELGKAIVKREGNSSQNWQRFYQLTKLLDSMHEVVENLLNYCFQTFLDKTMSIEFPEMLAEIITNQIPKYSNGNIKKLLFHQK
Assay: Glucocorticoid receptor competitive binding assay (fluorescence polarization, TAMRA-labeled dexamethasone probe)
Conditions: result in words only; IC50 values not given
Description: Compounds of the invention were evaluated for binding to the steroid receptor by a fluorescence polarization competitive binding assay.
A. Glucocorticoid Receptor Competitive Binding Assay
Step 1. Characterization of the Fluorescent Probe
The wavelengths for maximum excitation and emission of the fluorescent probe should first be measured. An example of such a probe is rhodamine (TAMRA)-labeled dexamethasone.
The affinity of the probe for the steroid receptor was then determined in a titration experiment. The fluorescence polarization value of the probe in assay buffer was measured on an SLM-8100 fluorometer using the excitation and emission maximum values described above. Aliquots of expression vector lysate were added and fluorescence polarization was measured after each addition until no further change in polarization value was observed. Non-linear least squares regression analysis was used to calculate the dissociation constant of the probe from the polarization values obtained for lysate binding to the probe.
Step 2. Screening for Inhibitors of Probe Binding
This assay uses fluorescence polarization (FP) to quantitate the ability of test compounds to compete with tetramethyl rhodamine (TAMRA)-labeled dexamethasone for binding to a human glucocorticoid receptor (GR) complex prepared from an insect expression system. The assay buffer was: 10 mM TES, 50 mM KCl, 20 mM Na2MoO4.2H2O, 1.5 mM EDTA, 0.04% w/v CHAPS, 10% v/v glycerol, 1 mM dithiothreitol, pH 7.4. Test compounds were dissolved to 1 mM in neat DMSO and then further diluted to 10× assay concentration in assay buffer supplemented with 10% v/v DMSO. Test compounds were serially diluted at 10× assay concentrations in 10% DMSO-containing buffer in 96-well polypropylene plates. Binding reaction mixtures were prepared in 96-well black Dynex microtiter plates by sequential addition of the following assay components to each well: 15 μL of 10× test compound solution, 85 μL of GR-containing baculovirus lysate diluted 1:170 in assay buffer, and 50 μL of 15 nM TAMRA-labeled dexamethasone. Positive controls were reaction mixtures containing no test compound; negative controls (blanks) were reaction mixtures containing 0.7 μM to 2 μM dexamethasone. […] IC50 values were determined by iterative non-linear curve fitting of the FP signal data to a 4-parameter logistic equation.

Activity in the GR binding assay, potent activity:
CC(C)(CC(O)(Cc1ccccc1Cl)C(=O)Nc1ccc2c(c1)COC2=O)c1cc(F)ccc1O (stereo not shown) [2-(2-Chlorobenzyl)-4-(5-fluoro-2-hydroxyphenyl)-2-hydroxy-4-methylpentanoic acid (1-oxo-1,3-dihydroisobenzofuran-5-yl)amide]
CC(C)(CC(O)(CC1CCCC1)C(=O)Nc1ccc2c(c1)COC2=O)c1cc(F)ccc1O (stereo not shown) [2-Cyclopentylmethyl-4-(5-fluoro-2-hydroxyphenyl)-2-hydroxy-4-methylpentanoic acid (1-oxo-1,3-dihydroisobenzofuran-5-yl)amide]
CC(C)(CC(O)(Cc1ccccc1O)C(=O)Nc1ccc2c(c1)COC2=O)c1cc(F)ccc1O (stereo not shown) [4-(5-Fluoro-2-hydroxyphenyl)-2-hydroxy-2-(2-hydroxybenzyl)-4-methylpentanoic acid (1-oxo-1,3-dihydroisobenzofuran-5-yl)amide]
COc1ccc(F)cc1C(C)(C)CC(O)(Cc1ccccc1)C(=O)Nc1ccc2c(=O)onc(C)c2c1 (stereo not shown) [2-Benzyl-4-(5-fluoro-2-methoxyphenyl)-2-hydroxy-4-methylpentanoic acid (4-methyl-1-oxo-1H-benzo[d][1,2]oxazin-6-yl)amide]
COc1ccc(F)cc1C(C)(C)CC(O)(CC1CCCCC1)C(=O)Nc1ccc2c(c1)COC2=O (stereo not shown) [2-Cyclohexylmethyl-4-(5-fluoro-2-methoxyphenyl)-2-hydroxy-4-methylpentanoic acid (1-oxo-1,3-dihydroisobenzofuran-5-yl)amide]
CC(C)(CC(O)(Cc1ccccc1Br)C(=O)Nc1ccc2c(c1)COC2=O)c1cc(F)ccc1O (stereo not shown) [2-(2-Bromobenzyl)-4-(5-fluoro-2-hydroxyphenyl)-2-hydroxy-4-methylpentanoic acid (1-oxo-1,3-dihydroisobenzofuran-5-yl)amide]
CC(C)(CC(O)(CC1CCCCC1)C(=O)Nc1ccc2c(c1)COC2=O)c1cc(F)ccc1O (stereo not shown) [2-Cyclohexylmethyl-4-(5-fluoro-2-hydroxyphenyl)-2-hydroxy-4-methylpentanoic acid (1-oxo-1,3-dihydroisobenzofuran-5-yl)amide]
CC(c1ccccc1)C(O)(CC(C)(C)c1cc(F)ccc1O)C(=O)Nc1ccc2c(c1)COC2=O (stereo not shown) [4-(5-Fluoro-2-hydroxyphenyl)-2-hydroxy-4-methyl-2-(1-phenylethyl)pentanoic acid (1-oxo-1,3-dihydroisobenzofuran-5-yl)amide]
COc1ccc(F)cc1C(C)(C)CC(O)(Cc1ccccc1Br)C(=O)Nc1ccc2c(c1)COC2=O (stereo not shown) [2-(2-Bromobenzyl)-4-(5-fluoro-2-methoxyphenyl)-2-hydroxy-4-methylpentanoic acid (1-oxo-1,3-dihydroisobenzofuran-5-yl)amide]
COc1ccc(F)cc1C(C)(C)CC(O)(Cc1ccccc1F)C(=O)Nc1ccc2c(c1)COC2=O (stereo not shown) [2-(2-Fluorobenzyl)-4-(5-fluoro-2-methoxyphenyl)-2-hydroxy-4-methylpentanoic acid (1-oxo-1,3-dihydroisobenzofuran-5-yl)amide]
CC(C)(CC(O)(Cc1ccc(F)c(F)c1)C(=O)Nc1ccc2c(c1)COC2=O)c1cc(F)ccc1O (stereo not shown) [2-(3,4-Difluorobenzyl)-4-(5-fluoro-2-hydroxyphenyl)-2-hydroxy-4-methylpentanoic acid (1-oxo-1,3-dihydroisobenzofuran-5-yl)amide]
COc1ccc(F)cc1C(C)(C)CC(O)(Cc1ccccc1Cl)C(=O)Nc1ccc2c(c1)COC2=O (stereo not shown) [2-(2-Chlorobenzyl)-4-(5-fluoro-2-methoxyphenyl)-2-hydroxy-4-methylpentanoic acid (1-oxo-1,3-dihydroisobenzofuran-5-yl)amide]
Cc1noc(=O)c2ccc(NC(=O)C(O)(Cc3ccccc3)CC(C)(C)c3cc(F)ccc3O)cc12 (stereo not shown) [2-Benzyl-4-(5-fluoro-2-hydroxyphenyl)-2-hydroxy-4-methylpentanoic acid (4-methyl-1-oxo-1H-benzo[d][1,2]oxazin-6-yl)amide]
CC(C)(CC(O)(Cc1ccccc1F)C(=O)Nc1ccc2c(c1)COC2=O)c1cc(F)ccc1O (stereo not shown) [2-(2-Fluorobenzyl)-4-(5-fluoro-2-hydroxyphenyl)-2-hydroxy-4-methylpentanoic acid (1-oxo-1,3-dihydroisobenzofuran-5-yl)amide]
CC(C)(CC(O)(C(=O)Nc1ccc2c(c1)COC2=O)C1CCCC1)c1cc(F)ccc1O (stereo not shown) [2-Cyclopentyl-4-(5-fluoro-2-hydroxyphenyl)-2-hydroxy-4-methylpentanoic acid (1-oxo-1,3-dihydroisobenzofuran-5-yl)amide]
Cc1noc(=O)c2ccc(NC(=O)C(O)(CC3CCCCC3)CC(C)(C)c3ccccc3)cc12 (stereo not shown) [2-Cyclohexylmethyl-2-hydroxy-4-methyl-4-phenylpentanoic acid (4-methyl-1-oxo-1H-benzo[d][1,2]oxazin-6-yl)amide]
COc1ccc(F)cc1C(C)(C)CC(O)(Cc1ccccc1)C(=O)Nc1ccc2c(c1)COC2=O (stereo not shown) [2-Benzyl-4-(5-fluoro-2-methoxyphenyl)-2-hydroxy-4-methylpentanoic acid (1-oxo-1,3-dihydroisobenzofuran-5-yl)amide]
CC(C)(CC(O)(Cc1ccc(F)cc1)C(=O)Nc1ccc2c(c1)COC2=O)c1cc(F)ccc1O (stereo not shown) [2-(4-Fluorobenzyl)-4-(5-fluoro-2-hydroxyphenyl)-2-hydroxy-4-methylpentanoic acid (1-oxo-1,3-dihydroisobenzofuran-5-yl)amide]
CC(C)(CC(O)(CCc1ccccc1)C(=O)Nc1ccc2c(c1)COC2=O)c1cc(F)ccc1O (stereo not shown) [4-(5-Fluoro-2-hydroxyphenyl)-2-hydroxy-4-methyl-2-phenethylpentanoic acid (1-oxo-1,3-dihydroisobenzofuran-5-yl)amide]
Cc1ccccc1CC(O)(CC(C)(C)c1cc(F)ccc1O)C(=O)Nc1ccc2c(c1)COC2=O (stereo not shown) [4-(5-Fluoro-2-hydroxyphenyl)-2-hydroxy-4-methyl-2-(2-methylbenzyl)pentanoic acid (1-oxo-1,3-dihydroisobenzofuran-5-yl)amide]
COc1ccc(F)cc1C(C)(C)CC(O)(CC1CCCCC1)C(=O)Nc1ccc2c(=O)onc(C)c2c1 (stereo not shown) [2-Cyclohexylmethyl-4-(5-fluoro-2-methoxyphenyl)-2-hydroxy-4-methylpentanoic acid (4-methyl-1-oxo-1H-benzo[d][1,2]oxazin-6-yl)amide]
COc1ccc(F)cc1C(C)(C)CC(O)(Cc1ccccc1C)C(=O)Nc1ccc2c(c1)COC2=O (stereo not shown) [4-(5-Fluoro-2-methoxyphenyl)-2-hydroxy-4-methyl-2-(2-methylbenzyl)pentanoic acid (1-oxo-1,3-dihydroisobenzofuran-5-yl)amide]
